Assay results as given in patent US9682974B2, “Heteroaryl substituted pyrazoles” (BAYER PHARMA AKTIENGESELLSCHAFT, priority 2013, dated 2017).

Tests used:
[1] = target: T1, catalytic domain of human Bub1 (amino acids 704-1085) (Homo sapiens, UniProt O43683); assay: Bub1 kinase assay (TR-FRET); assay type: biochemical; conditions: 10 μM ATP, 1 μM peptide substrate, read-out: Biological Assay 1: Bub1 kinase assay median IC50
T1 construct: catalytic domain of human Bub1 (amino acids 704-1085); His6 (N); made in house; host or cells: Hi5 insect cells
From the text: Bub1-inhibitory activities of compounds described in the present invention were quantified using a time-resolved fluorescence energy transfer (TR-FRET) kinase assay which measures phosphorylation of the synthetic peptide Biotin-Ahx-VLLPKKSFAEPG (SEQ ID No. 1) (C-terminus in amide form), purchased from e.g. Biosyntan (Berlin, Germany) by the (recombinant) catalytic domain of human Bub1 (amino acids 704-1085), expressed in Hi5 insect cells with an N-terminal His6-tag and purified by affinity- (Ni-NTA) and size exclusion chromatography.
In a typical assay 11 different concentrations of each compound (0.1 nM, 0.33 nM, 1.1 nM, 3.8 nM, 13 nM, 44 nM, 0.15 μM, 0.51 μM, 1.7 μM, 5.9 μM and 20 μM) were tested in duplicate within the same microtiter plate. To this end, 100-fold concentrated compound solutions (in DMSO) were previously prepared by serial dilution (1:3.4) of 2 mM stocks in a clear low volume 384-well source microtiter plate (Greiner Bio-One, Frickenhausen, Germany), from which 50 nL of compounds were transferred into a black low volume test microtiter plate from the same supplier. Subsequently, 2 μL of Bub1 (the final concentration of Bub1 was adjusted depending on the activity of the enzyme lot in order to be within the linear dynamic range of the assay: typically ˜200 ng/mL were used) in aqueous assay buffer [50 mM Tris/HCl pH 7.5, 10 mM magnesium chloride (MgCl2), 200 mM potassium chloride (KCl), 1.0 mM dithiothreitol (DTT), 0.1 mM sodium ortho-vanadate, 1% (v/v) glycerol, 0.01% (w/v) bovine serum albumine (BSA), 0.005% (v/v) Trition X-100 (Sigma), 1× Complete EDTA-free protease inhibitor mixture (Roche)] were added to the compounds in the test plate and the mixture was incubated for 15 min at 22° C. to allow pre-equilibration of the putative enzyme-inhibitor complexes before the start of the kinase reaction, which was initiated by the addition of 3 μL 1.67-fold concentrated solution (in assay buffer) of adenosine-tri-phosphate (ATP, 10 μM final concentration) and peptide substrate (1 μM final concentration). The resulting mixture (5 μL final volume) was incubated at 22° C. during 60 min., and the reaction was stopped by the addition of 5 μL of an aqueous EDTA-solution (50 mM EDTA, in 100 mM HEPES pH 7.5 and 0.2% (w/v) bovine serum albumin) which also contained the TR-FRET detection reagents (0.2 μM streptavidin-XL665 [Cisbio Bioassays, Codolet, France] and 1 nM anti-phosho-Serine antibody [Merck Millipore, cat. #35-001] and 0.4 nM LANCE EU-W1024 labeled anti-mouse IgG antibody [Perkin-Elmer, product no. AD0077, alternatively a Terbium-cryptate-labeled anti-mouse IgG antibody from Cisbio Bioassays can be used]). The stopped reaction mixture was further incubated 1 h at 22° C. in order to allow the formation of complexes between peptides and detection reagents. Subsequently, the amount of product was evaluated by measurement of the resonance energy transfer from the Eu-chelate-antibody complex recognizing the Phosphoserine residue to the streptavidin-XL665 bound to the biotin moiety of the peptide. To this end, the fluorescence emissions at 620 nm and 665 nm after excitation at 330-350 nm were measured in a TR-FRET plate reader, e.g. a Rubystar or Pherastar (both from BMG Labtechnologies, Offenburg, Germany) or a Viewlux (Perkin-Elmer) and the ratio of the emissions (665 nm/622 nm) was taken as indicator for the amount of phosphorylated substrate. The data were normalised using two sets of (typically 32-) control wells for high- (=enzyme reaction without inhibitor=0%=Minimum inhibition) and low- (=all assay components without enzyme=100%=Maximum inhibition) Bub1 activity. […] values were calculated by fitting the normalized inhibition data to a 4-parameter logistic equation (Minimum, Maximum, IC50, Hill; Y=Max+(Min−Max)/(1+(X/IC50)Hill)).

[2] = test system: HeLa human cervical cancer cell line; assay: Proliferation assay (HeLa cell line), crystal violet staining; assay type: cell-based; conditions: 96 h, HeLa cells, 4 days incubation, read-out: Biological Assay 2: Proliferation assay (HeLa cell line) median IC50
Procedure: Cultivated tumor cells (cells were ordered from ATCC) were plated at a density of 3000 cells/well in a 96-well multititer plate in 200 μL of growth medium supplemented 10% fetal calf serum. After 24 hours, the cells of one plate (zero-point plate) were stained with crystal violet (see below), while the medium of the other plates was replaced by fresh culture medium (200 μL), to which the test substances were added in various concentrations (0 μM, as well as in the range of 0.001-10 μM; the final concentration of the solvent dimethyl sulfoxide was 0.5%). The cells were incubated for 4 days in the presence of test substances. Cell proliferation was determined by staining the cells with crystal violet: the cells were fixed by adding 20 μL/measuring point of an 11% glutaric aldehyde solution for 15 minutes at room temperature. After three washing cycles of the fixed cells with water, the plates were dried at room temperature. The cells were stained by adding 100 μL/measuring point of a 0.1% crystal violet solution (pH 3.0). After three washing cycles of the stained cells with water, the plates were dried at room temperature. The dye was dissolved by adding 100 μL/measuring point of a 10% acetic acid solution. Absorbtion was determined by photometry at a wavelength of 595 nm. The change of cell number, in percent, was calculated by normalization of the measured values to the absorbtion values of the zero-point plate (=0%) and the absorbtion of the untreated (0 μm) cells (=100%). The IC50 values were determined by means of a 4 parameter fit.

T1 sequence (O43683 704-1085): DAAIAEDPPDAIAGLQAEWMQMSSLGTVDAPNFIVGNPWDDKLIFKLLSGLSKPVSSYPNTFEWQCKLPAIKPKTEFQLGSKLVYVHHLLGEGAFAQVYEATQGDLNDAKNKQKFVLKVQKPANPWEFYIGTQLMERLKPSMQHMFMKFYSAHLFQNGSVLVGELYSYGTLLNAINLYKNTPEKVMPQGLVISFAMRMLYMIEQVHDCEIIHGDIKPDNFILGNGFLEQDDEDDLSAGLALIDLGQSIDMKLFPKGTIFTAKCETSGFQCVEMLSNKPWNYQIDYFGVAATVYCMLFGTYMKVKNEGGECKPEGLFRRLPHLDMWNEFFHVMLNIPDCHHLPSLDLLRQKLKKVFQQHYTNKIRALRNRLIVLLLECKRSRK

SMILES	IC50 [1] [nM]	IC50 [2] [nM]
CCOc1cc(F)c(Cn2nc(-c3cc(Nc4ccncn4)n(CCN4CCOCC4)n3)c(C)c2C2CC2)c(F)c1 [Example 2-1-1, 5′-cyclopropyl-1′-(4-ethoxy-2,6-difluorobenzyl)-4′-methyl-1-[2-(morpholin-4-yl)ethyl]-N-(pyrimidin-4-yl)-1H,1′H-3,3′-bipyrazol-5-amine]	680	
CCOc1cc(F)c(Cn2nc(-c3cc(Nc4ccncn4)n(C(C)=O)n3)c(C)c2C2CC2)c(F)c1 [Example 2-1-2, 1-[5′-cyclopropyl-1′-(4-ethoxy-2,6-difluorobenzyl)-4′-methyl-5-(pyrimidin-4-ylamino)-1H,1′H-3,3′-bipyrazol-1-yl]ethanone]	≥ 20000	> 10000
CCOc1cc(F)c(Cn2nc(-c3nc(Nc4ccncc4)n(CCOC)n3)c(C)c2C2CC2)c(F)c1 [Example 2-3-2, N-{3-[5-cyclopropyl-1-(4-ethoxy-2,6-difluorobenzyl)-4-methyl-1H-pyrazol-3-yl]-1-(2-methoxyethyl)-1H-1,2,4-triazol-5-yl}pyridin-4-amine]	12	> 10000
CCOc1cc(F)c(Cn2nc(-c3cc(Nc4ccncc4)n(C)n3)c(C)c2C2CC2)c(F)c1 [Example 2-3-1, 5′-cyclopropyl-1′-(4-ethoxy-2,6-difluorobenzyl)-1,4′-dimethyl-N-(pyridin-4-yl)-1H,1′H-3,3′-bipyrazol-5-amine]	390	3500
CCOc1cc(F)c(Cn2nc(-c3cc(Nc4ccncn4)n(CCS(C)(=O)=O)n3)c(C)c2C2CC2)c(F)c1 [Example 2-2-1, 5′-cyclopropyl-1′-(4-ethoxy-2,6-difluorobenzyl)-4′-methyl-1-[2-(methylsulfonyl)ethyl]-N-(pyrimidin-4-yl)-1H,1′H-3,3′-bipyrazol-5-amine]	≥ 20000	
CCOc1cc(F)c(Cn2nc(-c3cc(Nc4ccncn4)n(C)n3)c(C)c2C2CC2)c(F)c1 [Example 2-1-4, 5′-cyclopropyl-1′-(4-ethoxy-2,6-difluorobenzyl)-1,4′-dimethyl-N-(pyrimidin-4-yl)-1H,1′H-3,3′-bipyrazol-5-amine]	34	
CCOc1cc(F)c(Cn2nc(-c3cc(Nc4ccncn4)n(CC(=O)O)n3)c(C)c2C2CC2)c(F)c1 [Example 2-1-3, [5′-cyclopropyl-1′-(4-ethoxy-2,6-difluorobenzyl)-4′-methyl-5-(pyrimidin-4-ylamino)-1H,1′H-3,3′-bipyrazol-1-yl]acetic acid]	1100	> 10000
CCOc1cc(F)c(Cn2nc(-c3nc(Nc4ccncc4)n(CCO)n3)c(C)c2C2CC2)c(F)c1 [Example 2-3-3, 2-{3-[5-cyclopropyl-1-(4-ethoxy-2,6-difluorobenzyl)-4-methyl-1H-pyrazol-3-yl]-5-(pyridin-4-ylamino)-1H-1,2,4-triazol-1-yl}ethanol]	22	> 10000

Results, then the molecule that gave them:

IC50 [1] [nM]	IC50 [2] [nM]	SMILES
91		CCOC(=O)c1cnccc1Nc1nc(-c2nn(Cc3c(F)cc(OCC)cc3F)c(C3CC3)c2C)nn1CCOC [Example 2-4-1, ethyl 4-({3-[5-cyclopropyl-1-(4-ethoxy-2,6-difluorobenzyl)-4-methyl-1H-pyrazol-3-yl]-1-(2-methoxyethyl)-1H-1,2,4-triazol-5-yl}amino)nicotinate]
26	> 10000	CCOc1cc(F)c(Cn2nc(-n3cc(Nc4ccncn4)cn3)c3ccccc32)c(F)c1 [Example 2-6-1, N-{1-[1-(4-ethoxy-2,6-difluorobenzyl)-1H-indazol-3-yl]-1H-pyrazol-4-yl}pyrimidin-4-amine]
2200	9100	Fc1ccccc1Cn1nc(-c2nsc(Nc3ccncc3)n2)c2ccccc21 [Example 2-7-1, N-{3-[1-(2-fluorobenzyl)-1H-indazol-3-yl]-1,2,4-thiadiazol-5-yl}-pyridin-4-amine]
82		CCOc1cc(F)c(Cn2nc(-c3n[nH]c(Nc4ccncc4)n3)c(C)c2C2CC2)c(F)c1 [Example 2-3-4, N-{3-[5-cyclopropyl-1-(4-ethoxy-2,6-difluorobenzyl)-4-methyl-1H-pyrazol-3-yl]-1H-1,2,4-triazol-5-yl}pyridin-4-amine]
13		CCOc1cc(F)c(Cn2nc(-c3nc(Nc4ccncc4)n(CCOC)n3)c3ccccc32)c(F)c1 [Example 2-5-1, N-{3-[1-(4-ethoxy-2,6-difluorobenzyl)-1H-indazol-3-yl]-1-(2-methoxyethyl)-1H-1,2,4-triazol-5-yl}pyridin-4-amine]
600		CCOc1cc(F)c(Cn2nc(-c3nc(Nc4ccncc4)nn3CCOC)c3ccccc32)c(F)c1 [Example 2-5-2, N-{5-[1-(4-ethoxy-2,6-difluorobenzyl)-1H-indazol-3-yl]-1-(2-methoxyethyl)-1H-1,2,4-triazol-3-yl}pyridin-4-amine]
